What was measured:
[1] = Terminal half life in Sprague-Dawley rat at 1 mg/kg, iv by LC-MS/MS analysis; type: ADME, organism-based; details: in vivo, read-out: beta t1/2 (converted)
[2] = in vivo; details: Sprague-Dawley, rat, iv, 1 mg/kg
Description: Volume of distribution at steady state in Sprague-Dawley rat at 1 mg/kg, iv by LC-MS/MS analysis

[3] = in vivo; details: Sprague-Dawley, rat, plasma, iv, 1 mg/kg
[4] = AUC (0 to infinity) in Sprague-Dawley rat at 1 mg/kg, iv by LC-MS/MS analysis; type: ADME, organism-based; parameters: dose 1 mg/kg, time infinity, route intravenous; details: in vivo
[5] = biological target: CYP2D6 (Homo sapiens, UniProt P10635); experiment: Inhibition of CYP2D6 in human liver microsomes assessed as reduction in dextromethorphan O-demethylase activity at 10 uM preincubated for 5 mins followed by NADPH addition and measured after 15 mins by LC-MS/MS analysis relative to control; type: ADME; details: probe dextromethorphan (O-demethylation)
[6] = AUC in Sprague-Dawley rat at 9 to 10 mg/kg, po via gavage by LC-MS/MS analysis; type: ADME, organism-based; details: in vivo
[7] = Effective permeability of the compound at 10 uM after 5 hrs by PAMPA; type: ADME; details: read-out: Peff
[8] = biological target: Voltage-gated inwardly rectifying potassium channel KCNH2 (Homo sapiens, UniProt Q12809)
Description: Inhibition of human ERG after 4 hrs by fluorescence polarization assay

[9] = Metabolic stability in mouse liver microsomes assessed as compound remaining at 1 uM after 30 mins in presence of NADPH regeneration system by LC-MS/MS analysis; type: ADME, Microsome; details: read-out: Stability
[10] = biological target: CYP3A4 (Homo sapiens, UniProt P08684); experiment: Inhibition of CYP3A4 in human liver microsomes assessed as reduction in midazolam 1-hydroxylase activity at 10 uM preincubated for 5 mins followed by NADPH addition and measured after 15 mins by LC-MS/MS analysis relative to control; type: ADME; details: probe midazolam (1-hydroxylation)
[11] = biological target: T1, CYP1A2 (Homo sapiens, UniProt P05177); experiment: Inhibition of CYP1A2 in human liver microsomes assessed as reduction in phenacetin O-deethylase activity at 10 uM preincubated for 5 mins followed by NADPH addition and measured after 15 mins by LC-MS/MS analysis relative to control; type: ADME; details: probe phenacetin (O-deethylation)
T1 sequence (P05177 whole entry): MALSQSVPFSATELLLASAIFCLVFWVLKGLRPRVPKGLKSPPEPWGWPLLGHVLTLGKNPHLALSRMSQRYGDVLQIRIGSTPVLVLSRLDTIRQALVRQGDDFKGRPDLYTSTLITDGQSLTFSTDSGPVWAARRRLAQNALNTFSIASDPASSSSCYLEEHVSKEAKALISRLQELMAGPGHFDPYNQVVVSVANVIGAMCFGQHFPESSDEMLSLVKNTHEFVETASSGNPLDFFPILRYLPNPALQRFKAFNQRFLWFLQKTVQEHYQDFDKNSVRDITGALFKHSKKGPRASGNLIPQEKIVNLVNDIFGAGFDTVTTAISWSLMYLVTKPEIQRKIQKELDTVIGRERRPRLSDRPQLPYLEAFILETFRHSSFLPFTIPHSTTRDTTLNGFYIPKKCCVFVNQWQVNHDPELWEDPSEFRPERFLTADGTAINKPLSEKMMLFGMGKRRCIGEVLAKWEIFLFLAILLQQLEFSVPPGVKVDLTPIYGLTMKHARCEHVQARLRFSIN

[12] = AUC (0 to infinity) in Sprague-Dawley rat at 9 to 10 mg/kg, po via gavage by LC-MS/MS analysis; type: ADME, organism-based; details: in vivo
[13] = biological target: CYP2C19 (Homo sapiens, UniProt P33261); experiment: Inhibition of CYP2C19 in human liver microsomes assessed as reduction in S-mephenytoin 4-hydroxylase activity at 10 uM preincubated for 5 mins followed by NADPH addition and measured after 15 mins by LC-MS/MS analysis relative to control; type: ADME; details: probe S-mephenytoin (4-hydroxylation)
[14] = biological target: T2, Estrogen receptor (Homo sapiens, UniProt P03372)
T2 sequence (P03372 whole entry): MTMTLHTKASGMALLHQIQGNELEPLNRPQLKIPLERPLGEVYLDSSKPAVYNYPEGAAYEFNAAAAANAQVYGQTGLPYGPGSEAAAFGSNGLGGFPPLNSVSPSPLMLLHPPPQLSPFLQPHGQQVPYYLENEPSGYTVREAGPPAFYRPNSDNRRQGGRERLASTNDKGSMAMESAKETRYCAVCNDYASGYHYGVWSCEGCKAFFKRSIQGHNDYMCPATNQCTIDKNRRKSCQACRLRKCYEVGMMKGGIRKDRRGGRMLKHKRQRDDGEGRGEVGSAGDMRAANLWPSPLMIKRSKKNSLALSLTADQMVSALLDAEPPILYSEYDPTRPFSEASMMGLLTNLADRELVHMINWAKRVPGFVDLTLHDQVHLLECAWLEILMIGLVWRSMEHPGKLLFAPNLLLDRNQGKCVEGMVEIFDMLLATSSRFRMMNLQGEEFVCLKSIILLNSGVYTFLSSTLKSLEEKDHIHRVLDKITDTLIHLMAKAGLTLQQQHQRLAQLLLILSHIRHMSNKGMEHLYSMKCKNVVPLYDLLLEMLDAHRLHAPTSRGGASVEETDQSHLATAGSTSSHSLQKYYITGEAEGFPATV

[15] = biological target: T3, Steroid hormone receptor ERR1 (Homo sapiens, UniProt P11474)
T3 sequence (P11474 whole entry): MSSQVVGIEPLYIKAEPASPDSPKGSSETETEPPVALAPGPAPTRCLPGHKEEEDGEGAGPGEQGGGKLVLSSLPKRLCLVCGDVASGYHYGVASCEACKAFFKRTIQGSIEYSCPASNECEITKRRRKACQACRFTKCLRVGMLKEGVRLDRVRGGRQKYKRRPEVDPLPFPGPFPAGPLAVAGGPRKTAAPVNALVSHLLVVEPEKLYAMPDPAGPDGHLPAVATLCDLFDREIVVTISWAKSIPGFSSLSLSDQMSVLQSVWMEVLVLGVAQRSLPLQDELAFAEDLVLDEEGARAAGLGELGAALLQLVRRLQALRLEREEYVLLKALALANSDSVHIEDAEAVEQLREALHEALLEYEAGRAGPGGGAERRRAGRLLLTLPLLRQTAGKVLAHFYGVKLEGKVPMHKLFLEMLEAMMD

[16] = Oral bioavailability in Sprague-Dawley rat at 9 to 10 mg/kg via gavage by LC-MS/MS analysis; type: ADME, organism-based; details: in vivo
[17] = Metabolic stability in human liver microsomes assessed as compound remaining at 1 uM after 30 mins in presence of NADPH regeneration system by LC-MS/MS analysis; type: ADME, Microsome; details: read-out: Stability
[18] = Cmax in Sprague-Dawley rat at 9 to 10 mg/kg, po via gavage by LC-MS/MS analysis; type: ADME, organism-based; details: in vivo
[19] = Metabolic stability in rat liver microsomes assessed as compound remaining at 1 uM after 30 mins in presence of NADPH regeneration system by LC-MS/MS analysis; type: ADME, Microsome; details: read-out: Stability
[20] = Tmax in Sprague-Dawley rat at 9 to 10 mg/kg, po via gavage by LC-MS/MS analysis; type: ADME, organism-based; details: in vivo
[21] = biological target: CYP2C9 (Homo sapiens, UniProt P11712); experiment: Inhibition of CYP2C9 in human liver microsomes assessed as reduction in tolbutamide 4-hydroxylase activity at 10 uM preincubated for 5 mins followed by NADPH addition and measured after 15 mins by LC-MS/MS analysis relative to control; type: ADME; details: probe tolbutamide (4-hydroxylation)
[22] = in vivo; details: Sprague-Dawley, rat, iv, 1 mg/kg; remark: listed apart in the source
[23] = Metabolic stability in dog liver microsomes assessed as compound remaining at 1 uM after 30 mins in presence of NADPH regeneration system by LC-MS/MS analysis; type: ADME, Canis lupus familiaris, Microsome; details: read-out: Stability
[24] = biological target: T4, Estrogen-related receptor gamma (Homo sapiens, UniProt P62508)
T4 sequence (P62508 whole entry): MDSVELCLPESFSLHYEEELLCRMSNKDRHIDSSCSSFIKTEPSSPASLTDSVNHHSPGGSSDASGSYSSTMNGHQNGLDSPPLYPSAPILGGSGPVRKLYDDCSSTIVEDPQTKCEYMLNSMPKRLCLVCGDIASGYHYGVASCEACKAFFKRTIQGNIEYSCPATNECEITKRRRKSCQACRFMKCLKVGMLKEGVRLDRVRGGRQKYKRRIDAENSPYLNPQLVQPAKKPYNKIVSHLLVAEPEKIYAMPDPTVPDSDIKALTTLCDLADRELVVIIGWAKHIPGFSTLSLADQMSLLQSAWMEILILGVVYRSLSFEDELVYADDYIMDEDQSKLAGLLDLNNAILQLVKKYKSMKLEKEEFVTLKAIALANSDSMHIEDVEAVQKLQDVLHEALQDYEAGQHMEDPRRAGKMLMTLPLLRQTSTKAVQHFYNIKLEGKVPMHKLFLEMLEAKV
Description: Inverse agonist activity at CMX-gal4-fused ERRgamma (unknown origin) transfected in human AD293 cells co-expressing CMV-beta galactosidase assessed as effect on beta-galactosidase activity after 24 hrs by luciferase reporter gene assay

[25] = biological target: T4, Estrogen-related receptor gamma; remark: listed apart in the source

CYP2C19, sequence (P33261 whole entry): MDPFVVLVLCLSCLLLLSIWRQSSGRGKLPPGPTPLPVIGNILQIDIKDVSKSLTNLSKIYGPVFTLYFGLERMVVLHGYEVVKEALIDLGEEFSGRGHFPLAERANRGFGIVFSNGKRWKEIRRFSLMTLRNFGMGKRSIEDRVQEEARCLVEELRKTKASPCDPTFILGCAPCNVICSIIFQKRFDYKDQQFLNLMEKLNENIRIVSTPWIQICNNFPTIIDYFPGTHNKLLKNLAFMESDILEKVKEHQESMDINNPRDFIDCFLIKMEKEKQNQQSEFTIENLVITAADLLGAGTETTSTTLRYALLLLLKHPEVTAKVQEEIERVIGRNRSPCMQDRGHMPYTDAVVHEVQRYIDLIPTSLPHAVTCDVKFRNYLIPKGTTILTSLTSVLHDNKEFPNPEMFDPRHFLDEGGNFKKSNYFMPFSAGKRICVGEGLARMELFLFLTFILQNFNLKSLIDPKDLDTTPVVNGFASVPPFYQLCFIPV
CYP3A4, sequence (P08684 whole entry): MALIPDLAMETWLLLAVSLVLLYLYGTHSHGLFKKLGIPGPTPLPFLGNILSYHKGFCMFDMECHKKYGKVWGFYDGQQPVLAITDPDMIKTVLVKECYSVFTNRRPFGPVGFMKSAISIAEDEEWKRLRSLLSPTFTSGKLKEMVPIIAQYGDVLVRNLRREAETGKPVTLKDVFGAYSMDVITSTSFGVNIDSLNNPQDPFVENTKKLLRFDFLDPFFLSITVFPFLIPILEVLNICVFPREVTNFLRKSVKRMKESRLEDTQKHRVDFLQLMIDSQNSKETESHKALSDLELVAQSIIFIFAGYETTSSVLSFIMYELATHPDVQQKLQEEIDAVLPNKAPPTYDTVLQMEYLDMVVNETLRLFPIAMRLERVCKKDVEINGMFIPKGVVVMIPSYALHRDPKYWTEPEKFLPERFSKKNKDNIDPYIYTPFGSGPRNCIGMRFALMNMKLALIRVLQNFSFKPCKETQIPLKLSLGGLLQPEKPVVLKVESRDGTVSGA
CYP2C9, sequence (P11712 whole entry): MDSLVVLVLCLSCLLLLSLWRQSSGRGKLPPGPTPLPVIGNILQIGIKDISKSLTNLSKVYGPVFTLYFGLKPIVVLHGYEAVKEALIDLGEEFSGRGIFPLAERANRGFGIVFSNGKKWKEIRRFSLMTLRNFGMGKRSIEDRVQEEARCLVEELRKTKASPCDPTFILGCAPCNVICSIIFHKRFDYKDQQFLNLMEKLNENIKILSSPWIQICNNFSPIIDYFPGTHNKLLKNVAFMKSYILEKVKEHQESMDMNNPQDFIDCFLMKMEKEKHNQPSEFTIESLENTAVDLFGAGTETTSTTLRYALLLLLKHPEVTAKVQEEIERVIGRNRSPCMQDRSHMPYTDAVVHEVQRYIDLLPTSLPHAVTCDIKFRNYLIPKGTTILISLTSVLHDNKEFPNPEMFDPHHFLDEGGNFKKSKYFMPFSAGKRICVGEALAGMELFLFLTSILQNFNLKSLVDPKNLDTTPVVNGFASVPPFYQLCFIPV
Voltage-gated inwardly rectifying potassium channel KCNH2, sequence (Q12809 whole entry): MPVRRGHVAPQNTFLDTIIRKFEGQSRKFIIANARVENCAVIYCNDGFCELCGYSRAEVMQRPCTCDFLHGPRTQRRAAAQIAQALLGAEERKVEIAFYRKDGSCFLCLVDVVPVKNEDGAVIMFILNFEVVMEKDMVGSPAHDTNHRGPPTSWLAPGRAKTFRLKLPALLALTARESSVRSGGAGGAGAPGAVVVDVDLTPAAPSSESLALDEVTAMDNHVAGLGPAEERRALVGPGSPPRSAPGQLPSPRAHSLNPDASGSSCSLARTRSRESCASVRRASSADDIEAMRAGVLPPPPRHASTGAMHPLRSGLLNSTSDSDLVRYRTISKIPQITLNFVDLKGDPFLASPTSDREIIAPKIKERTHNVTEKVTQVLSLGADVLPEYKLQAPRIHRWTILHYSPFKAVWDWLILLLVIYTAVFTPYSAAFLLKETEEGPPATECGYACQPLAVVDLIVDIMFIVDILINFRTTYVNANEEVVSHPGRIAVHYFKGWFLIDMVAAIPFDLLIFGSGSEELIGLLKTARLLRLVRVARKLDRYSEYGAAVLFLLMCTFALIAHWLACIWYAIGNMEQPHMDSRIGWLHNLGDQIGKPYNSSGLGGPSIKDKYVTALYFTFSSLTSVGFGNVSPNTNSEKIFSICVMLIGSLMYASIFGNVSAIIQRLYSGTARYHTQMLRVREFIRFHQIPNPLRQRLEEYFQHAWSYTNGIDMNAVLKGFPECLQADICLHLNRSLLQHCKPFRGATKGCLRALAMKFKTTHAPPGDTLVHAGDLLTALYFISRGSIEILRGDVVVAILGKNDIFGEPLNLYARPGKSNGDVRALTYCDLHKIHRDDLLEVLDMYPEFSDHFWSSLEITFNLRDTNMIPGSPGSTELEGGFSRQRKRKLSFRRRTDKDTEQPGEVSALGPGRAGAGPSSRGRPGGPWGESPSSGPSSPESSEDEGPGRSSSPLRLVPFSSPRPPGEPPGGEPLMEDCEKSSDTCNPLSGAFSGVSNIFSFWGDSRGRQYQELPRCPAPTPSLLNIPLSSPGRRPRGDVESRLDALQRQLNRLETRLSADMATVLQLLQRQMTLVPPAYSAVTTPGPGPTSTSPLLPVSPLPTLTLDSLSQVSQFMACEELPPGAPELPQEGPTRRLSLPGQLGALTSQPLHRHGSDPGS
CYP2D6, sequence (P10635 whole entry): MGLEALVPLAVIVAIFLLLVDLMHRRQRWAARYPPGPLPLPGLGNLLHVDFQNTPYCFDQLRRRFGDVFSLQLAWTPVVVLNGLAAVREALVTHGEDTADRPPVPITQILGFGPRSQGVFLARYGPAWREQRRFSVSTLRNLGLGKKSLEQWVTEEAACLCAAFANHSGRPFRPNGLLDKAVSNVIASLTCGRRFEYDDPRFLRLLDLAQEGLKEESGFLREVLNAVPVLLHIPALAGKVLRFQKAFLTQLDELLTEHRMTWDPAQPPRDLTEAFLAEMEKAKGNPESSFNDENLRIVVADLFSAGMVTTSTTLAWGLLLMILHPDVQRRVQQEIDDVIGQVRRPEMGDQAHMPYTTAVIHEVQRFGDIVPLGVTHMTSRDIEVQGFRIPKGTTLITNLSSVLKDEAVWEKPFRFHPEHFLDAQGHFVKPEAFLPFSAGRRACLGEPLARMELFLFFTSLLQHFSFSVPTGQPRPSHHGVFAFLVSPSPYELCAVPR

SMILES	half-life [1] [h]	Vd [2] [L/kg]	clearance [3] [mL/min/kg]	AUC(0-inf) [4] [µM·h]	inhibition at 0.25 h, 10 µM [5] [%]	AUC [6] [µM·h]	Papp at 5 h, 10 µM [7] [×10⁻⁶ cm/s]	IC50 [8] [µM]	remaining at 0.5 h, 1 µM [9] [%]	inhibition at 0.25 h, 10 µM [10] [%]	inhibition at 0.25 h, 10 µM [11] [%]	AUC(0-inf) [12] [µM·h]	inhibition at 0.25 h, 10 µM [13] [%]	IC50 [14] [µM]	IC50 [15] [µM]	bioavailability [16] [%]	remaining at 0.5 h, 1 µM [17] [%]	Cmax [18] [nM]	remaining at 0.5 h, 1 µM [19] [%]	inhibition at 0.25 h, 10 µM [21] [%]	other results
Cc1ccc(/C(=C(\CCCO)c2ccccc2)c2ccc(N3CCN(C)CC3)cc2)cc1.Cl.Cl	2.5	30.3	139	0.29	31.8	0.45	4.84	18.9	47.6	29.1	0	0.66	27.2	> 10	> 10	18.3	79.2	80	65.7	37.7	Tmax [20]: 2.8 h; AUC [22]: 0.28 µM·h
CC(C)N1CCN(c2ccc(/C(=C(/CCCO)c3ccccc3)c3ccc(O)cc3)cc2)CC1.Cl.Cl					36.5		0.46	18.7	19.9	33.6	12		18.8		> 10		26.6		32.5	13.9	remaining at 0.5 h, 1 µM [23]: 49.7%
CN(C)CCOc1ccc(/C(=C(/CCCO)c2ccccc2)c2ccc(O)cc2)cc1.Cl		16.8	44			0.68										8.4					
CCN1CCN(c2ccc(/C(=C(/CCCO)c3ccccc3)c3ccc(C)cc3)cc2)CC1.Cl.Cl	3.2	9.8	59	0.6	13.4	1.07	4.47		54.9	22.4	0	1.61	26	> 10	> 10	19.6	67.9	210	62.8	13	IC50 [24]: 0.018 µM; IC50 [25]: 0.025 µM; Tmax [20]: 3 h; AUC [22]: 0.55 µM·h; remaining at 0.5 h, 1 µM [23]: 58%
Cc1ccc(/C(=C(\CCCO)c2ccccc2)c2ccc(N3CCN(C(C)C)CC3)cc2)cc1.Cl.Cl	3.1	9.8	58	0.64	31.1	1.02	2.09	> 30	19.7	47	10.2	1.41	30.3	> 10	> 10	17.6	54.2	160	40	26.6	Tmax [20]: 4 h; AUC [22]: 0.58 µM·h
